Source: US10603322B2, “Therapeutic targeting of casein kinase 1δ in breast cancer” (The Scripps Research Institute, priority 2015, dated 2020)

How the values were obtained:
[1] = system: activated β-catenin signaling; assay: Wnt/β-catenin markers in MDA-MB-231 tumors of treated mice; format: in vivo; details: 20 mg/kg once daily i.p.
From the text: All animal studies are approved by the Scripps Florida IACUC. Stable pools of MDA-MB-231-Luc, MDA-MB-231, MDA-MB-468, SKBR3 or BT474 cells were established by injection of 2×10^6 cancer cells into the mammary fat pads of 6-week old female athymic nude mice (Charles River Laboratories). Establishment of BCM-4013 patient derived xenografts were as described (19). Briefly, fresh xenograft tumor fragments (˜1 mm^3) were transplanted into the cleared mammary fat pad of recipient SCID/Bg mice (Charles River Laboratories). Mice were treated with SR-3029 or vehicle (10:10:80, DMSO:Tween-80:Water) at 20 mg/kg daily by i.p. injection. Tumor volumes were measured as the indicated intervals using calipers or by luminescence imaging using the IVIS 100 imager (exposure time, 1-60 sec; binning 8; field of view 15-cm; f/stop 1; open filter) following subcutaneous injection of luciferin (15 mg/ml, Goldbio Technology). Average radiance (p/s/cm^2/sr) was determined from tumor region-of-interest (ROI) using Living-Image (Xenogen) analysis software. SDS-PAGE gel electrophoresis was performed using NuPAGE 4-12% Bis-Tris gels (Invitrogen) and transferred to PVDF membranes by semi-dry transfer using trans-blot transfer medium (Biorad). Membranes were blocked in Odyssey blocking buffer (LI-COR Biosciences) and incubated overnight at 4° C. with primary antibodies. After repeated washes with TBST (20 mM Tris, pH 7.6, 140 mM NaCl and 0.1% Tween-20) blots were incubated with the appropriate IRDye-conjugated secondary antibody (LI-COR Biosciences) and imaged using the LI-COR Odyssey. Bands were quantified using the Odyssey software (LI-COR Biosciences). The following antibodies were used in this study: CK1δ and Histone H4 (Abcam), CK1ε, c-Myc (9E10), Cyclin-D1 and β-actin (Santa Cruz), β-catenin (Cell Signaling), GAPDH (Millipore) and CD44 (R&D Systems). Total RNA was obtained using the RNeasy Plus Mini Kit (Qiagen) and 1-2 μg of RNA was reverse transcribed with Superscript III First Strand Synthesis System (Life Technologies). Quantitative PCR was performed using the Power SYBR Green PCR Master Mix (Life Technologies) and the ABI7900HT Fast Real-Time PCR System. Intron-spanning gene-specific primer pairs were designed using the Primer3 algorithm and relative expression values for each gene of interest obtained by normalizing to GAPDH mRNA expression using the ^ΔΔCt method.

CK1δ and CK1ε = details: cited from earlier work
[2] = system: MDA-MB-468 (TNBC) tumor xenografts; assay: Established orthotopic tumor xenograft; format: in vivo, nude mice; details: 20 mg/kg daily i.p.; tumors 100-mm^3 before treatment
From the text: (§1) All animal studies are approved by the Scripps Florida IACUC. Stable pools of MDA-MB-231-Luc, MDA-MB-231, MDA-MB-468, SKBR3 or BT474 cells were established by injection of 2×10^6 cancer cells into the mammary fat pads of 6-week old female athymic nude mice (Charles River Laboratories). Establishment of BCM-4013 patient derived xenografts were as described (19). Briefly, fresh xenograft tumor fragments (˜1 mm^3) were transplanted into the cleared mammary fat pad of recipient SCID/Bg mice (Charles River Laboratories). Mice were treated with SR-3029 or vehicle (10:10:80, DMSO:Tween-80:Water) at 20 mg/kg daily by i.p. injection. Tumor volumes were measured as the indicated intervals using calipers or by luminescence imaging using the IVIS 100 imager (exposure time, 1-60 sec; binning 8; field of view 15-cm; f/stop 1; open filter) following subcutaneous injection of luciferin (15 mg/ml, Goldbio Technology). Average radiance (p/s/cm^2/sr) was determined from tumor region-of-interest (ROI) using Living-Image (Xenogen) analysis software.

[3] = system: BT474 (HER2+) tumor xenografts; assay: Established orthotopic tumor xenograft; format: in vivo, nude mice; details: 20 mg/kg daily i.p.; tumors 100-mm^3 before treatment
From the text: as §1

[4] = system: SKBR3 (HER2+) tumor xenografts; assay: Established orthotopic tumor xenograft; format: in vivo, nude mice; details: 20 mg/kg daily i.p.; tumors 100-mm^3 before treatment
From the text: as §1

[5] = system: β-catenin/TCF target genes; assay: Expression of Wnt/β-catenin and Notch pathway genes (immunoblot, qPCR); format: cell-based, human; details: 24 hr, 100 nM
Procedure: SDS-PAGE gel electrophoresis was performed using NuPAGE 4-12% Bis-Tris gels (Invitrogen) and transferred to PVDF membranes by semi-dry transfer using trans-blot transfer medium (Biorad). Membranes were blocked in Odyssey blocking buffer (LI-COR Biosciences) and incubated overnight at 4° C. with primary antibodies. After repeated washes with TBST (20 mM Tris, pH 7.6, 140 mM NaCl and 0.1% Tween-20) blots were incubated with the appropriate IRDye-conjugated secondary antibody (LI-COR Biosciences) and imaged using the LI-COR Odyssey. Bands were quantified using the Odyssey software (LI-COR Biosciences). The following antibodies were used in this study: CK1δ and Histone H4 (Abcam), CK1ε, c-Myc (9E10), Cyclin-D1 and β-actin (Santa Cruz), β-catenin (Cell Signaling), GAPDH (Millipore) and CD44 (R&D Systems).
Total RNA was obtained using the RNeasy Plus Mini Kit (Qiagen) and 1-2 μg of RNA was reverse transcribed with Superscript III First Strand Synthesis System (Life Technologies). Quantitative PCR was performed using the Power SYBR Green PCR Master Mix (Life Technologies) and the ABI7900HT Fast Real-Time PCR System. Intron-spanning gene-specific primer pairs were designed using the Primer3 algorithm and relative expression values for each gene of interest obtained by normalizing to GAPDH mRNA expression using the ^ΔΔCt method.

[6] = system: β-catenin/TCF transcriptional activity; assay: TCF-dependent luciferase reporter assay in MDA-MB-231 cells; format: cell-based, human; details: increasing doses, 6 hr
Procedure: MDA-MB-231 or HEK293 cells stably expressing the TCF luciferase reporter 7TFP (39) were transfected with β-catenin-S33Y or empty vector (pcDNA). After 18 hr cells were seeded onto a 96-well plate at a density of 6000 cells/well. After 24 hr cells were treated with SR-3029 or vehicle and incubated for 6 hr prior to addition of 1 μg/ml recombinant human Wnt3a (R&D Systems) or PBS. After 3 hr, reporter assays were performed using BriteLite Plus (Perkin Elmer), which was added in equal volume directly to the media and luminescence read using a Spectramax plate reader (Molecular Devices).

FLT3 = FLT3 (Homo sapiens, UniProt P36888); details: cited from earlier work
FLT3, sequence (P36888 564-993 limits assumed): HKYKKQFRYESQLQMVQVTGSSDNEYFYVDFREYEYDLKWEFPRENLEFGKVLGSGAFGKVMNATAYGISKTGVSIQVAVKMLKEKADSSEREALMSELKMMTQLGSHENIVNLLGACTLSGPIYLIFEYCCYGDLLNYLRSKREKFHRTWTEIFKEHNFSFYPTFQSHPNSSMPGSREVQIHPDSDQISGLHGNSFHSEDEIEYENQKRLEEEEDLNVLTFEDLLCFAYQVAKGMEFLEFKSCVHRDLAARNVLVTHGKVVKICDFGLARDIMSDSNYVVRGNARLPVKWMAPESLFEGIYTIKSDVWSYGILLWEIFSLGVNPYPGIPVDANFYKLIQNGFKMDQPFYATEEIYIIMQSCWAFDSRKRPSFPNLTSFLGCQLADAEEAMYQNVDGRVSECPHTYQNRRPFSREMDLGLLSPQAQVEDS

MDA-MB-231 TNBC cells = assay: Cell proliferation / growth assay; format: cell-based, human; details: forced expression of β-catenin-S33Y or β-catenin N90; 72 hr

## Fc1cccc(-n2cnc3c(NCc4nc5ccc(F)c(F)c5[nH]4)nc(N4CCOCC4)nc32)c1 [SR-3029]
[1]; 7 days
  CCND1, WNT3, WNT9A and RARA mRNA transcripts in tumors: decreases
  SFRP1 transcripts in tumors: marked increase
  expression of nuclear β-catenin in tumors: markedly reduced
[1]; day 7
  CCND1 protein in tumors: down-regulation
CK1δ and CK1ε
  type of inhibition, potency and selectivity: ATP competitive inhibitor with exceptional potency and selectivity
[2]
  tumor growth: marked tumor growth inhibition
[3]
  tumor growth: marked tumor growth inhibition
[4]
  tumor growth: marked tumor growth inhibition
[5]
  Notch pathway mRNAs (JAG1, NUMB, DTX): no effect
  expression of endogenous β-catenin/TCF target genes (CCND1, MYC, CD44, WNT3, WNT9A): repressed
  expression of the endogenous Wnt antagonist SFRP1: marked increase
[6]
  endogenous β-catenin/TCF transcriptional activity: markedly reduced
FLT3
  FLT3 off-target activity: common (and weak) off-target
MDA-MB-231 TNBC cells
  growth inhibitory and apoptotic effects with constitutively active β-catenin: sufficient to rescue the growth inhibitory and apoptotic effects
